According to ChEMBL document CHEMBL1147126, “Habbemines A and B, pyrrolidine alkaloids with human delta-opioid receptor binding affinity from the leaves of Elaeocarpus habbemensis” (J Nat Prod, 2007):

Biological target: Delta-type opioid receptor (Homo sapiens, UniProt P41143)
Experiment: Displacement of [125I]deltorphin 2 from human recombinant delta opioid receptor expressed in HEK cell membrane
Format: cell membranes, HEK293

Delta-type opioid receptor, sequence (P41143 whole entry): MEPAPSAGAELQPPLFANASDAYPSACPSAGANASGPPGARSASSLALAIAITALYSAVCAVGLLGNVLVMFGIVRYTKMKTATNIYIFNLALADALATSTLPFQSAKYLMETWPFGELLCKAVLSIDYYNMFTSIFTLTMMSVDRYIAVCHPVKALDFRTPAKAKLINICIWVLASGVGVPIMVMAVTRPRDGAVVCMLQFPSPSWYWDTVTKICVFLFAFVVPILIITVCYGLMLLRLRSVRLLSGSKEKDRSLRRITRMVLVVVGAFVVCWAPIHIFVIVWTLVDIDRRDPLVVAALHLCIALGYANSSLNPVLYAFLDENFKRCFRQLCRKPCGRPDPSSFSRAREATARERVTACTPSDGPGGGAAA

Row | SMILES | IC50 [µM]
1 | C[C@H]1CC=CC(=O)[C@@H]1C(=O)C[C@@H]1CCCN1CCCO [HABBEMINES A] | 32.1
2 | C[C@H]1CC=CC(=O)[C@@H]1C(=O)C[C@H]1CCCN1CCCO [HABBEMINES B] | 32.1
